# Test results published in patent US20090163715A1, “Intermediate in Production of [2-(3,3,5,5-Tetramethylcyclohexyl)phenyl]Piperazine Compound” (EISAI R&D MANAGEMENT CO., LTD., priority 2005, published 2009).
# Columns and labels:
# Jurkat cells = experiment: Jurkat cell adhesion system (PMA-stimulated adhesion to immobilized human fibronectin); assay type: cell-based; conditions: Jurkat cells on human fibronectin-coated 96-well plate, PMA stimulation, 37° C. for 45-60 minutes; read-out: IC50 (concentration which inhibited the increase in the number of adhered cells by the PMA-stimulation by 50%)
# Method: Human fibronectin (Becton Dickinson Biosciences) was diluted with phosphate-buffered saline (hereinafter abbreviated as PBS; Sigma) to 0.1-0.01 μg/mL, and the diluted solution was added to a 96-well plate (Becton Dickinson) at 50 μL/well, and allowed to stand overnight at 4° C. On the following day, the supernatant was removed from the plate, and then PBS containing 1% bovine serum albumin (hereinafter abbreviated as BSA; Sigma) was added thereto at 100 μL/well and incubation was performed at 37° C. for 2 hours in a CO2 incubator (Hirasawa).
# The supernatant was removed from each plate and Jurkat cells suspended in RPMI-1640 (Sigma) containing 1 mg/mL BSA were added at 80 μL/well for 2.5×10^5 cells/well. The compound (B) diluted to different concentrations with RPMI-1640 containing […] BSA was immediately added at 10 μL/well, and then 100 nM phorbol myristate acetate (hereinafter abbreviated as PMA; Sigma) in RPMI-1640 containing 1 mg/mL BSA was added at 10 μL/well and the plate was incubated in a CO2 incubator at 37° C. for 45-60 minutes. […] After incubation, 50 mM glycine buffer (pH 10.4) containing 5 mM EDTA was added at 90 μL/well, and the absorbance at 405 nm was measured with an EL340 Automated Microplate Reader (BIO-TEK) to determine the adhered cell count.
# [1] = tested on: human peripheral blood neutrophils; experiment: Human peripheral blood neutrophil adhesion system (PMA-stimulated adhesion to HUVEC immobilized plate); assay type: cell-based; conditions: 0.75 h; BCECF-AM labeled human neutrophils on HUVEC immobilized plate, PMA stimulation, 37° C. for 45 minutes; read-out: IC50 (concentration which inhibited the increase in the number of adhered cells by the PMA-stimulation by 50%)
# Method: To a plastic centrifugation tube containing 100 units of heparin sodium (Shimizu Pharmaceutical) was added 25 mL of fresh blood sampled from a healthy human. After adding and mixing therewith 8 mL of physiological saline (Otsuka Pharmaceutical) containing 6% Dextran (Nacalai), the mixture was allowed to stand at room temperature for 45 minutes for sedimentation of the erythrocytes. The resultant supernatant was transferred to another plastic centrifugation tube and combined with an equivalent volume of PBS, and then centrifuged at 1600 rpm for 7 minutes at room temperature. The obtained hematocyte fraction was suspended in 4 mL of PBS, and the suspension was superposed on 4 mL of Ficoll-Paque™ PLUS (Amersham Biosciences). […]
# To 6.5 mL of RPMI-1640 medium (Sigma) containing 1 mg/mL of BSA were added 0.5 mL of a suspension of BCECF-AM labeled neutrophils at 5×10^7 cells/mL stored in ice, which was mixed, and the mixture was added at 80 μL/well to a HUVEC immobilized plate. […] The supernatant was removed from the plate, which was then washed several times with RPMI-1640 at 100 μL/well, and then PBS containing 0.1% NP-40 (Calbiochem) was added thereto at 100 μL/well and the fluorescent intensity was measured with an ARVO™SX 1420 multi label counter (Wallac) to determine the number of adhered cells.
smiles,measurement,setting,value
"CC1(C)CC(c2ccccc2N2CCN(CC3CC3)CC2)CC(C)(C)C1 [compound (B), 1-Cyclopropylmethyl-4-[2-(3,3,5,5-tetramethylcyclohexyl)phenyl]piperazine methanesulfonate]",IC50,Jurkat cells,4.7 µM
same,IC50,[1],7.1 µM
